Test results from patent USRE39192E1, “Supplemented and unsupplemented tissue sealants, methods of their production and use” (American National Red Cross, priority 1990, dated 2006).

System: human dermal fibroblasts (HDFs)
Assay: Cell chemotaxis assay (modified Boyden's chamber), human dermal fibroblasts
Type: cell-based
Source text: NIH/3T3 fibroblasts at passage 126 were purchased from the American Type Culture Collection, Rockville, Md. Cultures from passages 129-133 were used in the chemotaxis assays. Cultures were propagated in DMEM supplemented with 10%. Calf serum and approximately 1% antibiotic antimycotic solution. Human dermal fibroblasts (HDFs) were purchased from Clonetics, Inc. (San Diego, Calif.) at passage 2. Cultures from passages 3-5 were used in the chemotaxis assays. Cultures were cultivated in DMEM supplemented with 20% FBS (Hyclone Laboratories, Inc., Logan, Utah) and approximately 1% antibiotic antimycotic solution (Gibco, Grand Island, N.Y.).
The procedure used to determine cellular chemotaxis was a combination of two known methodologies. A modification of Boyden's chamber was used as follows: Millicell-PCF (Millipore, Inc., Bedford, Mass.) (12.0 μm) 12.0 mm diameter inserts were placed in individual wells of 24 well plates to create the upper and lower chemotaxis chambers. Chemotaxis results were arrived at by performing checkerboard analysis for every combination of cells and growth factors. Concentrations ranging from 0.1, 1, 10, 100 ng/ml with/without added heparin (10 U/ml) were used for FGF-1, FGF-2 (no heparin) and FGF-4 with all the cell types mentioned in the materials section. Briefly, cultures were trypsanized and placed in DMEM+0.1% Bovine Serum Albumin (BSA) (Sigma Chemical Co., St. Louis, Mo.) for approximately one hour at 37° C. in a 5% CO2 humidified chamber. Tow to 2.5×10^5 cells in 50 μl were added per insert to the upper chamber of the setup of the 24 well plates. Treatments were added as mentioned above. The assay was kept at 37° C. in a 5% CO2 humidified chamber for 4 hours. All combinations tested were performed in triplicate. At the end of 4 hours, the plates were removed from the incubator and the filters were stained following the protocol for staining included with the Millicell-PCT inserts. Briefly, the fluid surrounding the inside and outside of the Millicell-PCF inserts were removed. Three percent glutaraldehyde (Sigma Chemical Co., St. Louis, Mo.) was added to the outside and inside of the inserts for approximately 20 minutes. Following removal of the 3.0% glutaraldehyde, 0.5% Triton X-100 (E.M. Science, Cherry Hill, N.J.) was added for 5-7 minutes. On removal of the 0.5% Triton X-100, Fisher's Hematoxylin Solution Gill's Formulation (Fisher Scientific, Newark, Del.) No.1 was added for about 10 minutes. This solution was washed off in running distilled water for about 5 minutes. Using a cotton swab the upper side of the filter was swabbed to remove cells which had not migrated. Filters, were mounted lower side facing up on slides in Crystal Mount™ (Biomedia, Inc., Foster City, Calif.) solution and 10 random field were counted per slide both visually at 400× and at 200×using an Image Analyzing System to automate the enumeration of the cells on the underside of the filters.
As required, checkerboard analysis was carried out to determine random migration, and positive and negative chemotaxis. Growth factors were added to the upper and/or lower chambers to observe whether cells migrated towards the GF alone (chemotaxis), whether migration was random irrespective of whether the growth factor was added to the upper or lower well (chemokinesis) or whether cell migration was against the chemotactic gradient (negative chemotaxis).

With “HBGF-1: heparin binding growth factor-1, also known as ECGF and FGF-1; recombinant HBGF-1β expressed in E. coli” as the substance, how does the checkerboard analysis read?
Its checkerboard analysis is “chemotactic”.

And the “maximal migratory response over negative control” value?
Its value is 18 fold.

And the “migrated cells (checkerboard analysis)” value (lower 0 ng/ml, upper 0.1 ng/ml)?
The value was 48. +/− 1.965.

What about the “migrated cells (checkerboard analysis)” value (lower 0 ng/ml, upper 1 ng/ml) of the same substance?
Its value is 1.3 +/− 0.351.

And the “migrated cells (checkerboard analysis)” value (lower 0 ng/ml, upper 10 ng/ml)?
Its value is 4.6 +/− 2.424.

And the “migrated cells (checkerboard analysis)” value (lower 0 ng/ml, upper 100 ng/ml)?
The value was 2.4 +/− 2.59.

And the “migrated cells (checkerboard analysis)” value (lower 0.1 ng/ml, upper 0 ng/ml)?
Its value is 66.46 +/− 3.304.

What about the “migrated cells (checkerboard analysis)” value (lower 0.1 ng/ml, upper 0.1 ng/ml) of the same substance?
Its value is 3.5 +/− 1.550.

And the “migrated cells (checkerboard analysis)” value (lower 0.1 ng/ml, upper 1 ng/ml)?
The value was 22.0 +/− 6.621.

And the “migrated cells (checkerboard analysis)” value (lower 0.1 ng/ml, upper 10 ng/ml)?
Its value is 9.7 +/− 7.758.

And the “migrated cells (checkerboard analysis)” value (lower 0.1 ng/ml, upper 100 ng/ml)?
The value was 11.6 +/− 8.609.

And the “migrated cells (checkerboard analysis)” value (lower 1 ng/ml, upper 0 ng/ml)?
Its value is 90.0 +/− 5.776.

What about the “migrated cells (checkerboard analysis)” value (lower 1 ng/ml, upper 0.1 ng/ml) of the same substance?
The value was 27.7 +/− 8.10.

And the “migrated cells (checkerboard analysis)” value (lower 1 ng/ml, upper 1 ng/ml)?
The value was 52.6 +/− 2.775.

What about the “migrated cells (checkerboard analysis)” value (lower 1 ng/ml, upper 10 ng/ml) of the same substance?
Its value is 9.7 +/− 3.553.

What about the “migrated cells (checkerboard analysis)” value (lower 1 ng/ml, upper 100 ng/ml) of the same substance?
The value was 1.83 +/− 2.2.

What about the “migrated cells (checkerboard analysis)” value (lower 10 ng/ml, upper 0 ng/ml) of the same substance?
Its value is 92.4 +/− 29.307.

And the “migrated cells (checkerboard analysis)” value (lower 10 ng/ml, upper 0.1 ng/ml)?
Its value is 55.1 +/− 7.151.

And the “migrated cells (checkerboard analysis)” value (lower 10 ng/ml, upper 1 ng/ml)?
The value was 44.2 +/− 11.844.

And the “migrated cells (checkerboard analysis)” value (lower 10 ng/ml, upper 10 ng/ml)?
The value was 16.2 +/− 4.781.

What about the “migrated cells (checkerboard analysis)” value (lower 10 ng/ml, upper 100 ng/ml) of the same substance?
The value was 21.2 +/− 6.42.

What about the “migrated cells (checkerboard analysis)” value (lower 100 ng/ml, upper 0 ng/ml) of the same substance?
The value was 65.4 +/− 22.055.

What about the “migrated cells (checkerboard analysis)” value (lower 100 ng/ml, upper 0.1 ng/ml) of the same substance?
The value was 53.7 +/− 7.3118.

And the “migrated cells (checkerboard analysis)” value (lower 100 ng/ml, upper 1 ng/ml)?
The value was 54.9 +/− 18.599.

What about the “migrated cells (checkerboard analysis)” value (lower 100 ng/ml, upper 10 ng/ml) of the same substance?
The value was 49.166 +/− 9.152.

And the “migrated cells (checkerboard analysis)” value (lower 100 ng/ml, upper 100 ng/ml)?
The value was 4.66 +/− 3.3.
